In patent publication US10307413B2, “Tetrahydro- and dihydro-isoquinoline PRMT5 inhibitors and uses thereof” (Epizyme, Inc., priority 2013, dated 2019):

Assays:
PRMT5/MEP50 = PRMT5/MEP50 (Homo sapiens (Human), UniProt O14744); test: PRMT5 Biochemical Assay (PRMT5/MEP50 enzyme assay on peptide substrate, 3H-SAM Flashplate); settings: PRMT5 biochemical assay
In short: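 Radiometric methylation of a biotin-tagged H4(1-15) peptide by human PRMT5/MEP50 from baculovirus/Sf9, with ³H-SAM incorporation read on streptavidin Flashplates. Buffer: Bicine pH 7.6, TCEP, BSG, Tween20; compound preincubated 30 min at 25 °C; stopped with 600 µM final unlabeled SAM. DMSO and SAH controls; IC50 from fitted % inhibition.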

[1] = system: symmetric di-methyl arginine in Z-138 cells; test: Z-138 Methylation Assay (In Cell Western for symmetric di-methyl arginine and DNA content); type: cell-based; settings: Homo sapiens, In Cell Western methylation, read-out: ICW EC50
In short: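 Z-138 cells (50,000 cells/mL) treated with compound 96 h at 37 °C, then fixed and stained for symmetric di-methyl arginine (800 nm) with DRAQ5 DNA counterstain (700 nm) on Licor Odyssey.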

Z-138 cell line = test: Z-138 Proliferation Assay (Cell Titer Glo, 5 days); type: cell-based; settings: Homo sapiens, 120 h; Z-138 cells, 5 days, Cell Titer Glo; read-out: Proliferation EC50
In short: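 Z-138 cells exposed 5 days at 37 °C, 5% CO2 to nine-point 3-fold dilutions (final top 20 μM, 0.2% DMSO), in triplicate. Viability read as ATP by CellTiter-Glo luminescence; IC50 from 4-parameter fit of normalized dose-response curves.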

Sequence of PRMT5/MEP50 (O14744 other isoform, or with tags, fused parts or gaps): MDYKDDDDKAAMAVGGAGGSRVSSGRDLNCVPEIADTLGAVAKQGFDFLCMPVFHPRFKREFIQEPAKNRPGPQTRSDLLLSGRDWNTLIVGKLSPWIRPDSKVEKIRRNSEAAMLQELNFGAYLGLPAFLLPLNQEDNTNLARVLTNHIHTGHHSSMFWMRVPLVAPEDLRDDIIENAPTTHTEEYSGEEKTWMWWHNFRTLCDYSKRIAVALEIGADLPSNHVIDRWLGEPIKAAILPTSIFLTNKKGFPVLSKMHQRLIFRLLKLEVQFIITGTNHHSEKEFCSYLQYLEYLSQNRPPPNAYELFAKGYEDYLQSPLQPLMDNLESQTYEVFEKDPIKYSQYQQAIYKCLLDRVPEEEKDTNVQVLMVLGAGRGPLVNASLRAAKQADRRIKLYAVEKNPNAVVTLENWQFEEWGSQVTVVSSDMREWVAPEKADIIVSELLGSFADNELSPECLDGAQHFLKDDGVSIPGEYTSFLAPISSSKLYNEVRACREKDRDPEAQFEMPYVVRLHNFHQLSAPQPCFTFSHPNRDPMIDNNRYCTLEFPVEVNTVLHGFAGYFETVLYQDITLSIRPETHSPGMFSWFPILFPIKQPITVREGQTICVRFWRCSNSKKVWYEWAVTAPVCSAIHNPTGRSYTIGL
Sequence of PRMT5/MEP50 (Q9BQA1 other isoform, or with tags, fused parts or gaps partner): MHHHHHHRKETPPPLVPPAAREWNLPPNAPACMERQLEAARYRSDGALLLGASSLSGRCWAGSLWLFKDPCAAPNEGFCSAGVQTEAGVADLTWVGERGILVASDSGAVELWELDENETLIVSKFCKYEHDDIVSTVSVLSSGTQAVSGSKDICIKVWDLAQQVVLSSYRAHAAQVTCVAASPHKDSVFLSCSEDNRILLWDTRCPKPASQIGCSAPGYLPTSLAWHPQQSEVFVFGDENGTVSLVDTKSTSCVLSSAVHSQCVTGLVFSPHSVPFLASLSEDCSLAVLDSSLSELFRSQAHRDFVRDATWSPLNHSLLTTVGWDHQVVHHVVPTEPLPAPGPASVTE

SMILES | IC50 (PRMT5/MEP50) | EC50 [1] | EC50 (Z-138 cell line)
CC(C)c1nc(NC2COC2)cc(C(=O)NC[C@H](O)CN2CCc3ccccc3C2)n1 [Compound 449] | < 100 nM | < 100 nM | 101 to 1000 nM
CC(=O)N1CC(Nc2cc(C(=O)NC[C@H](O)CN3CCc4ccccc4C3)nc(C)n2)C1 [Compound 450] | < 100 nM | < 100 nM | 101 to 1000 nM
O=C(NC[C@H](O)CN1CCc2ccccc2C1)c1cc(NC2COC2)nc(N2CCCC2)n1 [Compound 451] | < 100 nM | < 100 nM | 101 to 1000 nM
CCc1nc(NC2COC2)cc(C(=O)NC[C@H](O)CN2CCc3ccccc3C2)n1 [Compound 452] | < 100 nM | < 100 nM | 101 to 1000 nM
O=C(NC[C@H](O)CN1CCc2ccccc2C1)c1cc(NC2CNC2)nc(N2CCNCC2)n1 [Compound 453] | < 100 nM | > 1000 nM | > 20000 nM
O=C(NC[C@H](O)CN1CCc2ccccc2C1)c1cc(NC2CNC2)nc(C(F)(F)F)n1 [Compound 456] | < 100 nM | 101 to 1000 nM | 101 to 1000 nM
CC(=O)N1CC(Nc2cc(C(=O)NC[C@H](O)CN3CCc4ccccc4C3)nc(C(C)C)n2)C1 [Compound 457] | < 100 nM | < 100 nM | < 100 nM
CCN(C)c1nc(NC2COC2)cc(C(=O)NC[C@H](O)CN2CCc3ccccc3C2)n1 [Compound 458] | < 100 nM | < 100 nM | < 100 nM
CCCN(C)c1nc(NC2COC2)cc(C(=O)NC[C@H](O)CN2CCc3ccccc3C2)n1 [Compound 459] | < 100 nM | < 100 nM | < 100 nM
COCCN(C)c1nc(NC2COC2)cc(C(=O)NC[C@H](O)CN2CCc3ccccc3C2)n1 [Compound 460] | < 100 nM | < 100 nM | < 100 nM
O=C(NC[C@H](O)CN1CCc2ccccc2C1)c1cc(NC2COC2)nc(N2CCNCC2)n1 [Compound 461] | < 100 nM | < 100 nM | < 100 nM
CCC(=O)N1CCN(c2nc(NC3COC3)cc(C(=O)NC[C@H](O)CN3CCc4ccccc4C3)n2)CC1 [Compound 462] | < 100 nM | < 100 nM | < 100 nM
CC(C)C(=O)N1CCN(c2nc(NC3COC3)cc(C(=O)NC[C@H](O)CN3CCc4ccccc4C3)n2)CC1 [Compound 463] | < 100 nM | < 100 nM | < 100 nM
CC(C)Cc1nc(NC2COC2)cc(C(=O)NC[C@H](O)CN2CCc3ccccc3C2)n1 [Compound 464] | < 100 nM | < 100 nM | < 100 nM
COc1nc(NC2COC2)cc(C(=O)NC[C@H](O)CN2CCc3ccccc3C2)n1 [Compound 465] | < 100 nM | < 100 nM | 101 to 1000 nM
CCN1CCN(c2nc(NC3CNC3)cc(C(=O)NC[C@H](O)CN3CCc4ccccc4C3)n2)CC1 [Compound 466] | < 100 nM | 101 to 1000 nM | 1000 to 10000 nM
CC(C)Oc1nc(NC2CNC2)cc(C(=O)NC[C@H](O)CN2CCc3ccccc3C2)n1 [Compound 467] | < 100 nM | 101 to 1000 nM | 101 to 1000 nM
CCCC(=O)N1CCC(Nc2cc(C(=O)NC[C@H](O)CN3CCc4ccccc4C3)ccn2)CC1 [Compound 468] | < 100 nM | < 100 nM | < 100 nM
CC(C)C(=O)N1CCC(Nc2cc(C(=O)NC[C@H](O)CN3CCc4ccccc4C3)ccn2)CC1 [Compound 469] | < 100 nM | < 100 nM | < 100 nM
CC(C)(C)C(=O)N1CCC(Nc2cc(C(=O)NC[C@H](O)CN3CCc4ccccc4C3)ccn2)CC1 [Compound 470] | < 100 nM | < 100 nM | < 100 nM
CC(C)CC(=O)N1CCC(Nc2cc(C(=O)NC[C@H](O)CN3CCc4ccccc4C3)ccn2)CC1 [Compound 471] | < 100 nM | < 100 nM | < 100 nM
O=C(NC[C@H](O)CN1CCc2ccccc2C1)c1ccnc(NC2CCN(C(=O)C3CC3)CC2)c1 [Compound 472] | < 100 nM | < 100 nM | < 100 nM
O=C(NC[C@H](O)CN1CCc2ccccc2C1)C1=CC2=NC(CO)CN2C=N1 (stereo partly drawn) [Compound 473] | 101 to 1000 nM | > 1000 nM | > 20000 nM
CC(=O)N1CC(Nc2cc(C(=O)NC[C@H](O)CN3CCc4ccccc4C3)nc(C(F)(F)F)n2)C1 [Compound 474] | < 100 nM | < 100 nM | 101 to 1000 nM
CC(=O)N1CC(Oc2cc(C(=O)NC[C@H](O)CN3CCc4ccccc4C3)ncn2)C1 [Compound 475] | < 100 nM | < 100 nM | 101 to 1000 nM
CNCCN(C)c1nc(NC2COC2)cc(C(=O)NC[C@H](O)CN2CCc3ccccc3C2)n1 [Compound 476] | < 100 nM | < 100 nM | 101 to 1000 nM
